Earlier results, collected in patent publication US8028928B2, “Spreader apparatus for sand based formulations” (priority 2007, dated 2011).

System: S. homoeocarpa
Conditions: bent grass blend Cato:Crenshaw (50:50); high disease pressure

CSC(=O)c1cccc2nnsc12 [ASM, acibenzolar-5-methyl]
Reduction of number of S. homoeocarpa infection centers: 38%
